Assays:
[1] = biological target: tryptophanase of Bacteroides tetaiotaomicron (Bacteroides thetaiotaomicron, UniProt Q8A7N2); assay: Tryptophanase enzyme inhibitory activity (LDH-coupled NADH loss); type: biochemical; conditions: 10 mM L-tryptophan, 30 min preincubation at 37° C., absorbance at 340 nm
Procedure: Tryptophanase inhibitory activity was evaluated by a method using lactate dehydrogenase (LDH). The reaction time-dependent reduction in NADH conjugated with the enzymatic reaction, with LDH, of pyruvic acid produced through the enzymatic reaction of L-tryptophan as a substrate with tryptophanase, was measured with a spectrophotometer (Phillips-R S et al., Biochemistry, 23, 6228-6234 (1984)). Enzyme inhibitory activity obtained without adding a test compound (by adding DMSO alone) in the presence of tryptophanase was used as a control. As the enzyme, tryptophanase of Bacteroides tetaiotaomicron (Genbank accession number: HC914434.1) was used.
A test compound solution was prepared by dissolving each test compound in DMSO at concentrations (from 30 mM to 30 nM at 10-fold common ratio). LDH, NADH and L-tryptophan were dissolved, using distilled water, respectively to concentrations of 80 units/mL, 10 mM and 50 mM. Bacteroides tryptophanase was prepared to 30 mg/mL. A potassium phosphate buffer was used as the buffer.
A reaction solution A was dispensed at 284.8 μL per well into a 96-well plate, and the test compound solution was added at 3.2 μL per well to obtain a final concentration of 1/100 (reaction solution B). The reaction solution B was incubated at 37° C. for 30 minutes, L-tryptophan was added thereto at 32 μL per well to obtain a final concentration of […] (reaction solution C), and the enzyme reaction was performed at 37° C. over 30 minutes with absorbance at 340 nm measured for monitoring the NADH loss. Based on the NADH loss, the tryptophanase inhibitory activity of the compound was evaluated.

[2] = tested on: Bacteroides; assay: Indole production suppressing effect in viable bacterium; type: cell-based; conditions: 5 mM L-Tryptophan assay medium, anaerobic, indole in culture supernatant, read-out: Bacteroides Indole Production Inhibitory Activity(IC50)
Procedure: The effect of a tryptophanase inhibitory compound to suppress indole production from a viable bacterium can be evaluated through the following operation.
When E. coli (Eschelicia coli) is used as a strain known to produce indole, the strain is cultured in an LB medium at 37° C. for 12 to 18 hours under anaerobic conditions, and then, suspended in an assay medium (5 mM L-Tryptophan/PBS(+)/25 mM HEPES (pH8)) in such a manner as to obtain O.D. of about 0.3. When bacteroides is used, the strain is cultured in a modified GAM medium at 37° C. for 12 to 18 hours under anaerobic conditions, and then suspended in an assay medium (5 mM L-Tryptophan/PBS(+)/25 mM HEPES (pH8)) in such a manner as to obtain O.D. of about 1.1. The thus obtained viable bacterial suspension prepared to have a final concentration of a compound of 1 μM to 10 mM is dispensed at 200 μL per well into a 96-well plate and cultured at 37° C. for 2 to 4 hours under anaerobic conditions, O.D., an ATP concentration (that can be quantitatively determined by using BacTiter-Glo (Promega Corporation)) and an indole concentration in the culture supernatant (that can be quantitatively determined by utilizing Ehrlich reaction) are measured. The effect of the tryptophanase inhibitory compound to suppress indole production from a viable bacterium can be evaluated depending on the degree of lowering of the indole concentration in the culture supernatant. It can be checked whether or not the effect is derived from a function other than tryptophanase inhibition, such as a bactericidal function or a bacterial growth inhibitory function, depending on lowering of the O.D. or reduction in the ATP concentration or by performing a generally practiced antibacterial activity test (a MIC (minimum growth inhibition concentration) test) using levofloxacin or the like as a positive control.
The activities of inhibiting indole production of the compounds of the respective examples shown in Table 13 were measured by the above-described method using Bacteroides to evaluate the effect of inhibiting indole production.

[3] = tested on: plasma indoxyl sulfate; assay: Effect of reducing plasma indoxyl sulfate concentration in mice; type: in vivo; conditions: oral gavage, plasma 6 hours after L-tryptophan
Procedure: An effect of a tryptophanase inhibitory compound to reduce plasma indoxyl sulfate concentration in a mouse can be evaluated through the following operation.
After fasting male BALB/c mice overnight, a tryptophanase inhibitory compound dissolved or suspended at a concentration of 0.01 to 10 mg/mL in 0.5% methylcellulose (MC) solution used as a solvent and 0.5% MC solution are orally administered by gavage at a volume of 10 mL/kg respectively to test compound groups and to a solvent control group. 30 minutes after the administration of the test compound or the solvent, L-tryptophan, that is, a substrate of tryptophanase, is orally administered by gavage at a dose of 1 to 3 g/kg. The L-tryptophan is suspended in a 0.5% tragacanth solution. For 12 hours after the administration of the L-tryptophan, blood is collected over time from a tail vein by using a hematocrit tube. The thus obtained blood is centrifuged at 11,000 rpm for 5 minutes to collect plasma, and the indoxyl sulfate concentration in the plasma is measured singly by liquid chromatography (fluorescence detection) or its combination with a mass spectrometer used subsequently. Plasma indoxyl sulfate concentration in the test compound group against the plasma indoxyl sulfate concentration in the solvent control group is calculated as, for example, a ratio of the area under a curve of the indoxyl sulfate concentration, and thus, the efficacy of each compound in vivo can be compared.
The indoxyl sulfate concentrations in plasma obtained by using the compounds of the respective examples shown in Table 14 below were measured by the above-described method to evaluate the plasma indoxyl sulfate suppressing effect.

tryptophanase of Bacteroides tetaiotaomicron, sequence (Q8A7N2 entry or part of it, change not shown): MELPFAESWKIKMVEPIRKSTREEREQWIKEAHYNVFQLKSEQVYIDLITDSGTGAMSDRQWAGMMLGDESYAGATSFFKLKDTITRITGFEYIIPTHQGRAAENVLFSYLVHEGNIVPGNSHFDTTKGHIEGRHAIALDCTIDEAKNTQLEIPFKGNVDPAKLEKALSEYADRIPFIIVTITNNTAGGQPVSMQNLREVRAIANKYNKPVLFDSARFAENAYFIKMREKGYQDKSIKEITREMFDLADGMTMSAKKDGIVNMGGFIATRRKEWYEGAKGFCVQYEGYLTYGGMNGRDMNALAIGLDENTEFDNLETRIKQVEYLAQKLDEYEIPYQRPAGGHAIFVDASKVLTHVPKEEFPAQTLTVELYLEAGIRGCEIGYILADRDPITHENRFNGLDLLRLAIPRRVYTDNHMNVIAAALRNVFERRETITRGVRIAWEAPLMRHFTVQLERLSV

Row | Structure (SMILES) | IC50 [1] | IC50 [2] | Plasma Indoxyl Sulfate Reduction Effect in Male BALB/c Mouse (Indoxyl sulfate reduction effect in plasma 6 hours after administration of L-tryptophan: ED75-, mg/kg) [3]
1 | CCOc1cc(N)c(F)cc1C(=O)N[C@](C)(CC)C(=O)O [Compound of Example 23, (−)-N-(4-Amino-2-ethoxy-5-fluorobenzoyl)-D-isovaline] | 490 nM | < 3000 nM | 1 mg/kg
2 | CCOc1cc(N)c(F)cc1C(=O)N[C@@](C)(CC)C(=O)O [Compound of Example 24, (+)-N-(4-Amino-2-ethoxy-5-fluorobenzoyl)-L-isovaline] | 130 nM | < 3000 nM | 1 mg/kg
3 | CCCOc1cc(N)c(Cl)cc1C(=O)N[C@](C)(CC)C(=O)O [Compound of Example 25, (−)-N-(4-Amino-5-chloro-2-propoxybenzoyl)-D-isovaline] | 40 nM | < 3000 nM | 1 mg/kg
4 | CCCOc1cc(N)c(F)cc1C(=O)N[C@](C)(CC)C(=O)O [Compound of Example 27, (−)-N-(4-Amino-5-fluoro-2-propoxybenzoyl)-D-isovaline] | 90 nM | < 3000 nM | 1 mg/kg
